Assay results taken from patent US20070219174A1, “METHODS OF TREATING CANCER USING HYPOFRACTIONATED RADIATION AND TEXAPHYRINS” (Pharmacyclics, Inc., priority 2006, published 2007).

Key:
[1] = system: brain metastases; assay: MRI of brain metastases after MGd (FIG. 1A, 1B); type: in vivo, human
Description: In particular, sections 20, 21, and 22 on the right panel (MGd+standard contrast) show brain metastases not visible in sections 20, 21, and 22 on the left panel (standard Gd contrast).

[2] = system: brain metastases from solid tumors; conditions: patients with brain metastases from solid tumors receiving WBRT; cited from earlier work
[3] = system: tumors; conditions: cited from earlier work
[4] = system: tumors; conditions: clinical results, magnetic resonance imaging; cited from earlier work
[5] = system: brain metastases; conditions: clinical results, MRI long after administration; cited from earlier work

| Structure (SMILES) | MRI enhancement of brain metastases versus standard Gd contrast ([1]; FIG. 1A, MGd+standard contrast vs standard Gd contrast) | localization in brain metastases on MRI ([1]; FIG. 1B, brain metastases from NSCLC, post MGd without contrast) | neurological progression incl. neurologic and neurocognitive function [2] | accumulation in tumors ([3]; clinical results) | well tolerated dose ([3]; clinical results) | radiologic response rate ([3]; combined with WBRT of 30 Gy in 10 fractions) | biolocalization in tumors [4] | tumor selectivity, depiction of brain metastases at MRI [5] |
| --- | --- | --- | --- | --- | --- | --- | --- | --- |
| CC(=O)[O-].CC(=O)[O-].CCc1c(CC)c2cc3nc(cnc4cc(OCCOCCOCCOC)c(OCCOCCOCCOC)cc4ncc4nc(cc1[n-]2)C(CCCO)=C4C)C(C)=C3CCCO.O.[Gd+3] [MGd, motexafin gadolinium] | enhances brain metastases not visible with standard Gd contrast | localization in brain metastases from NSCLC | provides benefit to patient's neurological progression | selectively accumulated in tumors | up to 6.3 mg/kg | high radiologic response rate | – | – |
| CC(=O)[O-].CC(=O)[O-].CCc1c(CC)c2cc3nc(cnc4cc(OCCOCCOCCOC)c(OCCOCCOCCOC)cc4ncc4nc(cc1[n-]2)C(CCCO)=C4C)C(C)=C3CCCO.O.[Gd+3] [Gd-Tex, Gadolinium Texaphyrin] | – | – | – | – | – | – | selective biolocolization in tumors | tumor selective |
